Test results: US20100292316A1, “IMPROVED THERAPEUTIC METHODS AND COMPOSITIONS COMPRISING CHROMAN RING COMPOUNDS” (Research Development Foundation, priority 2007, published 2010)

Test system: MDA-MB-435 human breast cancer cells
Assay: DNA microarray gene expression after α-TEA treatment
Assay type: cell-based
Set-up: scale not given here
Conditions: MDA-MB-435, 40 μM, 12 h
Protocol: In order to identify genes that are involved in α-TEA induced apoptosis in cancer cells the gene expression levels in MDA-MB-435 human breast cancer cells were analyzed after treatment with α-TEA. The MDA-MB-435 cell line is an estrogen-receptor negative/estrogen-nonresponsive epithelial cell line isolated from the pleural effusions of a human with breast cancer (Price et al., 1990). DNA microarray data obtained from treatment of MDA-MB-435 cells with 40 μM α-TEA for 12 h identified approximately 400 genes that gave consistent responses to α-TEA treatment. Genes that passed a minimum quality control threshold were analyzed using online software (The Database for Annotation, Visualization and Integrated Discovery (DAVID)).
MDA-MB-435 cells were cultured in MEM with Earle's balanced salts (Life Technologies, Inc., Grand Island, N.Y.) supplemented with 5% FBS (Hyclone Laboratories, Logan, Utah) plus 2 mM glutamine, 100 μg/ml streptomycin, 100 IU/ml penicillin, 1×(v/v) nonessential amino acids, 2×(v/v) MEM vitamins, and 1 mM sodium pyruvate (Sigma).
Messenger RNA was isolated from the treated MDA-MB-435 cells (3×150 mm dishes) using the FastTrack 2.0 kit (Invitrogen) according to the manufacturer's instructions. First, 15 ml of lysis buffer was added into the cell pellets and mixed thoroughly. The cell lysates were incubated in 45° C. for 45 min with intermittent inversion. Then, 950 μl of 5 M NaCl stock solution was added and mixed thoroughly. Any remaining DNA was sheared by passing the lysates 3 times through a sterile plastic syringe fitted with a 21 gauge needle. Next, the calculated amount of oligo-dT cellulose was added to each sample and allowed to swell for 2 minutes. The tube was rocked gently in a horizontal position for 60-90 minutes at room temperature. The oligo-dT slurry was centrifuged at 4000 rpm for 5 minutes at room temperature, the supernatant was carefully removed from the resin bed. The oligo-dT cellulose was then resuspended in 20 ml of Binding Buffer by vortexing and centrifuged at 4000 rpm for 5 minutes at room temperature, the binding buffer was removed from the resin bed; this step was repeated with 10 ml of binding buffer. The oligo-dT cellulose was washed three times in 10 ml of Low Salt Wash Buffer and centrifuged. The resulting oligo-dT cellulose was resuspended in 800 μl of Low Salt Wash Buffer using a 1 ml pipette tip with a cut-end and quickly transferred to a spin column seated in a microcentrifuge tube. The column was centrifuged at 1000 rcf (about 3000 rpm on a typical microcentrifuge) for 10 seconds at room temperature and the flow-through liquid was discarded. The transfer and centrifugation steps were repeated until all of the oligo-dT cellulose was in the spin column. Then, the spin column containing the oligo-dT cellulose was placed into a clean microcentrifuge tube. The oligo-dT cellulose was resuspended in 200 μl of preheated Elution Buffer (65° C.) using a 200 μl cut-end pipette tip to gently swirl the cellulose, without puncturing the underlying spin column membrane. The column was allowed to stand for 2 minutes at room temperature and then centrifuged at 1000 rcf for 30 seconds at room temperature. This step was repeated with 200 μl of heated Elution Buffer. Then, 40 μl of 3 M sodium acetate and 1 ml of 95% ethanol were added into the combined 400 μl eluent which contained the mRNA and mixed thoroughly. The mRNA mixture was stored at −80° C. overnight. Thenext day, the mixture was thawed and centrifuged at 14,000 rpm in a microcentrifuge for 15 minutes at 4° C., the ethanol was then carefully removed from the mRNA pellet. The mRNA was washed with 70% ethanol once more and resuspended in 20 μl of Elution Buffer (heated as before). […]

## Cc1c(C)c2c(c(C)c1OCC(=O)O)CC[C@@](C)(CCC[C@H](C)CCC[C@H](C)CCCC(C)C)O2 [α-TEA]
Clone IMAGE: 5311129, mRNA, AI362218
  Average level: −0.8568
EST, AI201652
  Average level: −0.7242
Homo sapiens transcribed sequence with strong similarity to protein pdb: 1BGM, AA779865
  Average level: −0.735
Homo sapiens transcribed sequences, R55747
  Average level: −0.756
MRNA full length insert cDNA clone EUROIMAGE 200999, N54993
  Average level: −0.698
Transcribed sequences, H99855
  Average level: −0.8377
Gene AGPAT3, R61733
  Average level: −0.743
Gene AGTRAP, AA152101
  Average level: −0.574
Gene AKR1C2, AI924357
  Average level: −0.865
Gene AMD1, R82299
  Average level: −0.758
Gene ATOX1, AA418755
  Average level: −0.898
Gene ATP5G1, AA046701
  Average level: −0.6558
Gene BAT3, AA598629
  Average level: −0.5502
Gene BST2, AA485371
  Average level: −0.5935
Gene C7orf38, AA452899
  Average level: −0.6558
Gene C9orf58, H48148
  Average level: −0.5662
Gene C13orf8, AA463267
  Average level: −0.6892
Gene C14orf24, AA035549
  Average level: −0.6602
Gene C16orf34, AA045658
  Average level: −0.7252
Gene CDCA2, AI248208
  Average level: −0.719
Gene CHD9, R81880
  Average level: −0.6642
Gene CLCN3, H69811
  Average level: −0.6208
Gene COX7B, AA629999
  Average level: −0.8798
Gene CRABP1, AA421218
  Average level: −0.7923
Gene CRTAP, AA490280
  Average level: −0.7943
Gene CTNNB1, AW058504
  Average level: −0.59
Gene CUGBP2, AA047257
  Average level: −0.8218
Gene CXXC5, R63735
  Average level: −0.8002
Gene D4ST1, AA922082
  Average level: −0.6567
Gene DAG1, AA496691
  Average level: −0.8377
Gene DCT, N27147
  Average level: −0.8518
Gene DEPDC6, AA621364
  Average level: −0.93
Gene DHCR24, AA482324
  Average level: −0.8912
Gene DPY19L2, AA134696
  Average level: −0.7558
Gene EPHB2, W72792
  Average level: −0.6663
Gene ERBB3, AA664212
  Average level: −0.864
Gene ETFB, AI364521
  Average level: −0.6326
Gene FAM83D, R96941
  Average level: −0.5566
Gene FBXL13, AA676859
  Average level: −0.8802
Gene FLJ12973, AI220472
  Average level: −0.7147
Gene FLJ21901, AI392678
  Average level: −0.8782
Gene FZD4, AA677200
  Average level: −0.765
Gene GFER, AA465021
  Average level: −0.5873
Gene GGH, AA455800
  Average level: −0.8048
Gene GNG2, N26108
  Average level: −0.9006
Gene HBS1L, AI003293
  Average level: −0.6832
Gene HNRPM, AA504272
  Average level: −0.6512
Gene HSBP1, AA481263
  Average level: −0.735
Gene IFT122, R97234
  Average level: −0.585
Gene ITGB8, AI246160
  Average level: −0.7288
Gene KIAA0664, AI363909
  Average level: −0.8538
Gene LGALS13, AA706870
  Average level: −0.8452
Gene LOC151162, H79970
  Average level: −0.6815
Gene LOC286334, AA425105
  Average level: −0.8562
Gene LRRK2, AA283609
  Average level: −0.8566
Gene LTBP3, R60197
  Average level: −0.6094
Gene MAF1, AA598994
  Average level: −0.8305
Gene MAN1A2, R22905
  Average level: −0.8387
Gene MGA, AA011551
  Average level: −0.74
Gene MGC4692, AA455039
  Average level: −0.7943
Gene MLANA, N26562
  Average level: −0.551
Gene MVK, R06716
  Average level: −0.673
Gene MYEF2, H96671
  Average level: −0.6864
Gene MYO5A, H20809
  Average level: −0.6754
Gene NETO2, AA456821
  Average level: −0.6854
Gene NOV, AW008840
  Average level: −0.7034
Gene NQO1, AA455538
  Average level: −0.8166
Gene NUPL1, AA158352
  Average level: −0.8132
Gene NUPL2, R96358
  Average level: −0.7312
Gene NUSAP1, AA620485
  Average level: −0.617
Gene OVOS2, AA600184
  Average level: −0.9275
Gene PCDHB16, AI218958
  Average level: −0.7648
Gene PFKFB2, R16146
  Average level: −0.6214
Gene PLEKHF2, AA886792
  Average level: −0.8846
Gene SCD, R00707
  Average level: −0.8732
Gene SFRS2, AA454585
  Average level: −0.7076
Gene SGCD, AA479286
  Average level: −0.8855
Gene SLC26A2, AA704222
  Average level: −0.9114
Gene SLC44A1, R59173
  Average level: −0.6684
Gene SLC44A1, T61913
  Average level: −0.6626
Gene SNX12, AA629796
  Average level: −0.611
Gene SOS1, H64324
  Average level: −0.6138
Gene STARD7, R37351
  Average level: −0.7862
Gene TBC1D1, R32437
  Average level: −0.8948
Gene TBC1D16, AI431804
  Average level: −0.9208
Gene TMPO, H21943
  Average level: −0.7848
Gene TMPO, T63980
  Average level: −0.7846
Gene TNFRSF21, AA490494
  Average level: −0.8622
Gene TNS3, T74023
  Average level: −0.8212
Gene TOP2A, AA504348
  Average level: −0.7142
Gene TREX1, AA279658
  Average level: −0.861
Gene TRIM2, AA464935
  Average level: −0.922
Gene TSHZ1, AA426522
  Average level: −0.865
Gene TWSG1, N91767
  Average level: −0.6
Gene USP40, H29211
  Average level: −0.8932
Gene VAV3, H10045
  Average level: −0.9075
Gene VPRBP, AA644335
  Average level: −0.702
Gene VPS13D, AI005042
  Average level: −0.7177
Gene WASPIP, AA283699
  Average level: −0.8604
Gene ZNF291, AA001504
  Average level: −0.6362
